Active and inactive are the calls of the source.
Experiments:
[1] = luciferase reporter signal suppression in cells – H4 neuroglioma cells, luminescence, dose response (AID 1990); format: functional, cell-based
[2] = blockers of HIV-1 ZM109 envelope-driven cell-cell fusion – HeLa effector, CEM target cells, luciferase, cherry-pick, dose response (AID 652058); format: functional, cell-based;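 also: luciferase signal from HIV-1 Env mediated cell-cell fusion of effector and target cells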
[3] = blockers of HIV-1 envelope-mediated cell-cell fusion – cherry-pick, dose response (AID 652057); format: functional, cell-based
[4] = off-target signal loss in HeLa-CEM21 co-culture – HeLa F-luc CTL cells, cherry-picked, counter-screen for HIV-1 Env fusion inhibitor project, dose response (AID 652040); format: functional, cell-based;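 also: potency for signal decrease marking cytotoxic or nonspecific inhibition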
[5] = Luminescence Cell-Based Dose Response HTS to Identify Inhibitors of 5'UTR Stem-Loop Driven Prion Protein mRNA Translation in H4 Neuroglioblastoma Cells. [Related pubchem assays: 1827 (Project Summary), 1813 (Primary HTS)]; format: functional
[6] = alpha-synuclein stem-loop luciferase translation blockers – H4 neuroglioma cells, luminescence, confirmation (AID 1988); format: functional, cell-based
[7] = test system: HeLa; assay: ATP-based viability loss in HeLa cells – cell-based, CellTiter-Glo luminescence, cherry-pick samples, cytotoxicity control for MITF activator project, dose response (AID 540259); format: functional; conditions: Homo sapiens
[8] = test system: HEK293; assay: cells; format: functional, cell-based; conditions: Homo sapiens
[9] = molecular target: T1, Nuclear receptor subfamily 0 group B member 1 (Homo sapiens, UniProt P51843); assay: Luminescence-based cell-based high throughput dose response assay for inhibitors of the orphan nuclear receptor subfamily 0, group B, member 1 (DAX1; NR0B1). [Related pubchem assays (depositor defined):AID504766, AID504790]; format: functional
T1 sequence (P51843 whole entry): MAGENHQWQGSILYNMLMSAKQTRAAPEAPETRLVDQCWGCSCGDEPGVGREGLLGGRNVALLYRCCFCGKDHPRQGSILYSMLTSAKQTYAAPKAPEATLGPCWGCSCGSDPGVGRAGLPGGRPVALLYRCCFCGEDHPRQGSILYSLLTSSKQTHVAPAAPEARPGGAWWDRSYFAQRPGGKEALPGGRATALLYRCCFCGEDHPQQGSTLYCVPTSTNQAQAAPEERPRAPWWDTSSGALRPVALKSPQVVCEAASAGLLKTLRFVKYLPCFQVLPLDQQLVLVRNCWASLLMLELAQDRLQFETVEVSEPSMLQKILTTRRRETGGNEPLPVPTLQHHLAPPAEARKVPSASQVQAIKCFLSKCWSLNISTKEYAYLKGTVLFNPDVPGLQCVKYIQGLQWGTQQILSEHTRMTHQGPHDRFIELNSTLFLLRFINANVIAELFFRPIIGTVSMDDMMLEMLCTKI

[10] = molecular target: T2, Hepatocyte nuclear factor 4-alpha (Homo sapiens, UniProt P41235); format: functional, cell-based;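 also: biochemical luminescence-based dose-response counterscreen measuring inhibition of HNF4 dimerization, run alongside a screen for blockers of ABHD5–perilipin-5 interaction; split luciferase complementation of HNF4 fusion proteins in cell lysate measuring dimerization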
T2 sequence (P41235 whole entry): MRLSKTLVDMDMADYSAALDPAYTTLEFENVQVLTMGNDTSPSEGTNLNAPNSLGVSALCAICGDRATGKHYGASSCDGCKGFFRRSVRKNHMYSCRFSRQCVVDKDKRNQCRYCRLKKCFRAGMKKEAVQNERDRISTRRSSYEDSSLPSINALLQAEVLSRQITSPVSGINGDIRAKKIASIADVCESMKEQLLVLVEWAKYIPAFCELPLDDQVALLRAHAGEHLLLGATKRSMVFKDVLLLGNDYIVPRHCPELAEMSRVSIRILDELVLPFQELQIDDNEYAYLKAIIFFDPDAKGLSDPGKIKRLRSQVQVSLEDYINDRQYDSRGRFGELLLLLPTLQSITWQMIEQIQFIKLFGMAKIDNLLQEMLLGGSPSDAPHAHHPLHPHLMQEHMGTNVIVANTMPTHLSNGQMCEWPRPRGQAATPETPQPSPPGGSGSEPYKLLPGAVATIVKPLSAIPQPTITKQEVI

[11] = P. falciparum Dd2 growth inhibitors, dose response, SYBR Green, cherry-picked samples (AID 1159567); format: functional, cell-based
[12] = A2780 cell killing – plate reader, dry powder samples, cytotoxicity control, dose response (AID 743046); format: functional, cell-based
[13] = molecular target: Paired box protein Pax-8 (Homo sapiens, UniProt Q06710); assay: PAX8 transcriptional activity inhibition in RMG-I – RMG-I cells, luciferase, cherry-pick, dose response (AID 687027); format: functional, cell-based;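 also: luciferase reporter driven by Pax8 target thyroperoxidase promoter measured by SteadyGlo luminescence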
Chain of Paired box protein Pax-8 (Q06710 whole entry): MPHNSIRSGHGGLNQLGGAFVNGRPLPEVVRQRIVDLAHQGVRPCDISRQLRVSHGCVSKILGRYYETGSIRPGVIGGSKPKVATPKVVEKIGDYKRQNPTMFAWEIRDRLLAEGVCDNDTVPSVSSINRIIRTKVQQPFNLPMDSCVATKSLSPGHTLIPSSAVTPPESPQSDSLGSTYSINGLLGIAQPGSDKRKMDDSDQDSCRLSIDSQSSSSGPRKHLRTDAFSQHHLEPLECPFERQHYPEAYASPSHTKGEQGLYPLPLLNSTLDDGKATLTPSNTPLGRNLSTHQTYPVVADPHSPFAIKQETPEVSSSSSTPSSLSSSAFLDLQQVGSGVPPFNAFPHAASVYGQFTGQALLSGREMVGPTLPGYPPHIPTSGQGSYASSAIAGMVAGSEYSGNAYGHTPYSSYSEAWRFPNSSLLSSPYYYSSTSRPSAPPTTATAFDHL

[14] = OVCAR8 cell viability loss – plate reader, dry powder samples, PAX8 project, dose response (AID 743197); format: functional, cell-based; conditions: OVCAR-8
[15] = cells; format: functional, cell-based
[16] = cells; format: functional, cell-based; remark: listed apart in the source
[17] = molecular target: T3, Trace amine-associated receptor 1 (Homo sapiens, UniProt Q96RJ0); assay: Fluorescence-based cell-based high throughput dose response assay to identify agonists of the human trace amine associated receptor 1 (TAAR1).; format: functional
T3 sequence (Q96RJ0 whole entry): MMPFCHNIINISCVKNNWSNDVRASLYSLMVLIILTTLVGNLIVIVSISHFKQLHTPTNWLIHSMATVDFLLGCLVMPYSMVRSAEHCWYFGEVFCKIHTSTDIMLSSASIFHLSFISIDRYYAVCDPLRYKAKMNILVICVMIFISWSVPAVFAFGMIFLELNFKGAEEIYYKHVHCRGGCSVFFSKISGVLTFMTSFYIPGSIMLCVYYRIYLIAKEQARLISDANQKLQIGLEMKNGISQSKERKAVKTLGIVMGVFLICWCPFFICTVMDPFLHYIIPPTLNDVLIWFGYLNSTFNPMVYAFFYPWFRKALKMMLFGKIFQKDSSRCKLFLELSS

[18] = molecular target: T3, Trace amine-associated receptor 1; assay: Counterscreen for agonists of the human trace amine associated receptor 1 (hTAAR1): Fluorescence-based cell-based high throughput dose response assay to identify hTAAR1 agonist that also desensitize TAAR1 receptor response.; format: functional
[19] = HIV-1 AD8 envelope cell-cell fusion blockers – cherry-pick, dose response (AID 652062); format: functional, cell-based;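 also: luciferase signal from cell-cell fusion driven by HIV-1 clade B AD8 Env; potency is for inhibitors of fusion seen as a drop in luminescence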

O=C(NCc1ccco1)c1ccc(Cn2c(=O)c3ccccc3n(Cc3cccc(F)c3)c2=O)cc1
EC50 [1]: 15.1 µM (active) | AC50 [2]: 5.5 µM (active) | AC50 [3]: 2.17 µM (active) | AC50 [4]: 3.52 µM (active) | EC50 [5]: > 120 µM (not active) | EC50 [6]: 41.4 µM (active)

CN1CCSc2ccc(C(=O)Nc3cc(F)ccc3F)cc21
AC50 [7]: 44.2 µM (active) | IC50 [8]: > 67.5 µM (inactive) | IC50 [9]: > 67.5 µM (inactive)

O=c1c(-c2ccco2)nc2ccccc2n1C(CCc1ccccc1)c1nc2ccccc2[nH]1 (stereo unspecified)
IC50 [10]: 2.54 µM (active)

CO[C@@H]1CN(C)C(=O)c2cc(NC(=O)c3nc4ccccc4s3)ccc2OC[C@H](C)NC[C@H]1C
AC50 [11]: 10 µM (active) | AC50 [12]: 0.437 µM (active)

C[C@@H]1CN([C@H](C)CO)C(=O)c2cc(NC(=O)Nc3ccc(F)cc3)ccc2O[C@@H](C)CCCCO[C@H]1CN(C)S(=O)(=O)c1ccc(Cl)cc1
AC50 [13]: 6.11 µM (active) | AC50 [14]: > 70 µM (inactive) | AC50 [12]: 5.81 µM (active)

O=C(N[C@H](C(=O)N1CCC[C@H]1C(=O)NCCc1ccccc1Cl)C1CCCCC1)C1CC1
EC50 [15]: > 29.9 µM (inactive) | IC50 [16]: > 29.9 µM (inactive) | EC50 [17]: 12.1 µM (inactive) | IC50 [18]: 8.99 µM (active)

CC(C)(C)NC(=O)C(c1ccncc1)n1c(=O)c(-c2ccco2)nc2ccccc21 (stereo unspecified)
IC50 [10]: 8.03 µM (active)

O=C(CC(O)CCc1ccccc1)c1ccc(O)cc1 (stereo unspecified)
IC50 [8]: > 67.5 µM (inactive) | IC50 [9]: > 67.5 µM (inactive)

COc1cc(OCC(=O)NC(C)C)cc2c1C(=O)O[C@@H](C)CCCC(=O)CCCCC2
AC50 [2]: 6.68 µM (active) | AC50 [3]: 6.38 µM (active) | AC50 [4]: 10.5 µM (active) | AC50 [19]: 26.4 µM (active)

From ChEMBL document CHEMBL1201862, “PubChem BioAssay data set” (2004)
